The source of these data is paper PMC10272112 (Nature Communications, 2023).

The subject of experiment [1] is HDACs (HDAC1, HDAC2, HDAC6). Details: method as in earlier work. Particulars: ref Bantscheff et al., Nat Biotech, 2011; Lechner et al., Nat Chem Bio, 2023; read-out: EC50 in comparable chemoproteomic competition assays; cited from earlier work.
Another experiment deals with T1, HDAC3/NcoR2 complex (Homo sapiens, UniProt O15379).
T1 construct: purchased BPS Bioscience 50003
Briefly: HDAC-Glo assay. Conditions: read-out: log EC50 from dose-dependent HDAC inhibition curves (converted). The format is biochemical. Here is the method: (§1) To validate the inhibition of HDACs by LA and LM and elaborate on the structure-activity relationship (SAR) of enantiomers as well as oxidized versus reduced forms of the molecules, we performed enzyme activity assays for recombinant HDAC1,2,3,6,8 as well as FRET-based binding assay for recombinant HDAC10.
(§2) The experiments were performed according to ref. [48]. […] Drug dosing was performed with a D300e Digital Dispenser (Tecan). HDACs (7 ng/mL for HDAC1, 25 ng/mL for HDAC2, 200 ng/mL for HDAC3/Ncor2 complex, 100 ng/mL for HDAC6, 200 ng/mL for HDAC8) and inhibitors were incubated together at room temperature (RT) for 30 min. After the addition of the HDAC-Glo™ I/II reagent, plates were shaken (800 rpm orbital shaker, 30 s), centrifuged (300 g, 1 min), and incubated at RT for 30 min. Luminescence was detected with a CLARIOstar (BMG Labtech) plate reader.

The target in another experiment is HDAC2 (Homo sapiens, UniProt Q92769). Briefly: HDAC-Glo assay. The experiment is classed as biochemical. Set-up: purchased BPS Bioscience 50002. Conditions: read-out: log EC50 from dose-dependent HDAC inhibition curves (converted). Here is the method: as §1, §2
Chain of HDAC2 (Q92769 whole entry): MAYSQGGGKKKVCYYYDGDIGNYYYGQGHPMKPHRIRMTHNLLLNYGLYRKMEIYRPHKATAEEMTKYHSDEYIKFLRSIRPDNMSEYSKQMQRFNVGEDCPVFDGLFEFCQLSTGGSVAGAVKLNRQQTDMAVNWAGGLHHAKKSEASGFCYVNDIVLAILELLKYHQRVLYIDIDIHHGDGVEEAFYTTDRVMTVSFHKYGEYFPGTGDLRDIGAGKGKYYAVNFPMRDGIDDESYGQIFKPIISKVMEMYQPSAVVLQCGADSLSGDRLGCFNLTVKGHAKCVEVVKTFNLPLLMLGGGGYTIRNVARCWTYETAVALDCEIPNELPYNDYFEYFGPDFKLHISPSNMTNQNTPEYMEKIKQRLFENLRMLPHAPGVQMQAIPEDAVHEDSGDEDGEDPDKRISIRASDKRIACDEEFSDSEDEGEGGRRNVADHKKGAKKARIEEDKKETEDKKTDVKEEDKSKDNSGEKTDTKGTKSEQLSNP
The target in a further experiment is T2, HDAC6 (Homo sapiens, UniProt Q9UBN7).
T2 sequence (Q9UBN7 1-1215): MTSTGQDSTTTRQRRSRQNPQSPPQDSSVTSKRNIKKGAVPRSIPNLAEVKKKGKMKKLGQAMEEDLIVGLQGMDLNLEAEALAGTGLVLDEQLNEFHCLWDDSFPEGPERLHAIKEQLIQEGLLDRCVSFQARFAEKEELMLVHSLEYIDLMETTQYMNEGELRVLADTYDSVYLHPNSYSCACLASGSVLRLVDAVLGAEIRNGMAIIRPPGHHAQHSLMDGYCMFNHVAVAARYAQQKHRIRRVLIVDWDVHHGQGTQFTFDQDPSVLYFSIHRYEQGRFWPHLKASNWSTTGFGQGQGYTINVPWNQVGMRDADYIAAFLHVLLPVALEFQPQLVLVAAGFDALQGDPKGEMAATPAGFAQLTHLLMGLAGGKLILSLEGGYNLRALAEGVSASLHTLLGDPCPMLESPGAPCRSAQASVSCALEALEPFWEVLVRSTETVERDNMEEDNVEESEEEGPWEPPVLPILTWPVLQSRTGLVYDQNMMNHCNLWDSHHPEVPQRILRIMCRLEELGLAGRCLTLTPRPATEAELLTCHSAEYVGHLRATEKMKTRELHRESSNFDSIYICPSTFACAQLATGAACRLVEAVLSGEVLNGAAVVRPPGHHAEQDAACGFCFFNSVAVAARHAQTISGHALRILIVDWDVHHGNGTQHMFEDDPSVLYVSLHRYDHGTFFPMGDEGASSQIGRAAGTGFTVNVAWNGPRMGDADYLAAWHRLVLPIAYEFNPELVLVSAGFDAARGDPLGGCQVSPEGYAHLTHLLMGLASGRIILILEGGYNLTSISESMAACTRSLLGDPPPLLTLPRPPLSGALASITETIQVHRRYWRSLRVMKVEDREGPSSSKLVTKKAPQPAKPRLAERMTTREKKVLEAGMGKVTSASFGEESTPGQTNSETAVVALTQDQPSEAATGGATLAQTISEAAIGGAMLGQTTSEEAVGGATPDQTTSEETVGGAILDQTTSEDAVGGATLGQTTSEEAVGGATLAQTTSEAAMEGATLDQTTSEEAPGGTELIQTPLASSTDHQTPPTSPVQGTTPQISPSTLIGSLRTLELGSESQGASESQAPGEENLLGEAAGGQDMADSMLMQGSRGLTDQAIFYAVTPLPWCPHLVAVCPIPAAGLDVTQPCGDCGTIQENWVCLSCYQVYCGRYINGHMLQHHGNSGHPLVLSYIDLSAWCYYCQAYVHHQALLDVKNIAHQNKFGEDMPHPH
Briefly: HDAC-Glo assay. Conditions: for HDAC6 relative activity: sheet S2d. The format is biochemical. Set-up: purchased BPS Bioscience 50006. The method, then:
as §1, §2

Another experiment concerns the target T3, HDAC8 (Homo sapiens, UniProt Q9BY41).
T3 sequence (Q9BY41 1-377): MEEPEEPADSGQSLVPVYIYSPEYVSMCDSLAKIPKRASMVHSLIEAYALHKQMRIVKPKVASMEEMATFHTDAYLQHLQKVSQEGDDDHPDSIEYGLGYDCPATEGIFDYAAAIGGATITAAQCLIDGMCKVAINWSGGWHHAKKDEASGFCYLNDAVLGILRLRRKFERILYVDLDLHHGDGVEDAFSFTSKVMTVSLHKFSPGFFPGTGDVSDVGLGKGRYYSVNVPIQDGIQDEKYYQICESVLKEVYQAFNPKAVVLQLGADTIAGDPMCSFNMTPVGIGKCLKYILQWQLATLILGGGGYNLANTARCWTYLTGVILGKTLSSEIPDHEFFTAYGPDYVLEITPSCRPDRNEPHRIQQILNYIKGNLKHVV
Briefly: HDAC-Glo assay. Details: purchased BPS Bioscience 50008. The experiment is classed as biochemical. Conditions: for HDAC8 relative activity: sheet S2d. The method, then: as §1, §2

In another experiment the target is HDAC1 (Homo sapiens, UniProt Q13547). Put plainly: HDAC-Glo assay. The format is biochemical. Details: purchased BPS Bioscience 50051. Particulars: for raw luminescence signal, HDAC1 inhibition: 0.5 M TCEP; for HDAC1 relative activity: sheet S2d. The method, then: as §1, §2
Chain of HDAC1 (Q13547 whole entry): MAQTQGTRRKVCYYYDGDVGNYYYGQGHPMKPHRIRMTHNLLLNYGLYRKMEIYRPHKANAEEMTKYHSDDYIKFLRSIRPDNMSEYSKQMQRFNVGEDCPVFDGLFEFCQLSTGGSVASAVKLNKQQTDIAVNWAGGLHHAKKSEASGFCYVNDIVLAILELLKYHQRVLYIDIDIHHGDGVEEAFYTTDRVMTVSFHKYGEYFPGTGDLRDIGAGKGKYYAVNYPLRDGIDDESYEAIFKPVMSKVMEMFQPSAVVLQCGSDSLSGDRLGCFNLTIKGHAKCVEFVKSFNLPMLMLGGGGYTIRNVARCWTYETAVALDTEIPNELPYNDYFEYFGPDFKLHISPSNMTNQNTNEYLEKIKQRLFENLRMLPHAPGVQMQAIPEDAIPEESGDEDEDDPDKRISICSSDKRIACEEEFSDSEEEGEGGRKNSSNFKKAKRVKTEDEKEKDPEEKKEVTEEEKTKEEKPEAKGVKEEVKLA
Experiment [2] deals with A549 cells. Put plainly: CellRox deep red assay for ROS quantification (with or without arsenite). The experiment is classed as cell-based. Conditions: sheet 4d.
In experiment [3] the test system is A549 cells. Put plainly: CellRox deep red assay for tBuOOH-induced ROS. Particulars: NAC 500 ?M; sheet 4c; DMSO mean = 1.
Experimental: A549 cells were maintained in DMEM (Sigma) supplemented with 10% fetal bovine serum (Pan Biotech). […] The CellRox assay was performed according to the product guidelines (ThermoFisher). Briefly, cells were treated with lipoic acid, N-acetyl-cysteine (NAC), or vector control (DMSO) for 1 h, followed by a 2 h treatment with 200 µM tert-butyl hydroperoxide, and then stained with 5 µM CellRox Deep Red for 1 h. Cells were washed twice with FluoroBrite DMEM (ThermoFisher) supplemented with 10% FBS before imaging. CellRox Deep Red signal intensity was measured on a Leica DMI 6000 B epifluorescent microscope with a Cy5 filter set. […] Significance was calculated by ANOVA with a post hoc Dunnett’s multiple comparisons test against the DMSO control (GraphPad).
Another experiment relates to α-Tubulin AcK40. Briefly: α-tubulin acetylation detection by western blot, CBP-HA transfected HEK293T. Conditions: HEK293T, ACY-738 5 µM. The format is cell-based. The method, then:
(§3) 0.2 × 10^6 HEK293T (ATCC: CRL-3216) cells were transfected with pcDNA 3.1-HA CBP plasmids (1 μg/well for the 6-well plate) by FuGENE. After 2 days, cells were treated with ACY-738, lipoic acid, and lipoamide for 7 h, then were washed by ice-cold PBS and lysed in Triton lysis buffer (50 mM Tris, pH 8.0, 150 mM NaCl, 1 mM EDTA, 0.1% TritonX-100 and complete EDTA-free protease inhibitors (Roche)) for analysis. To detect protein acetylation, 0.2 μM Trichostatin A and 5 mM nicotinamide were added to PBS for washing, and 10 μM trichostatin A, 10 mM nicotinamide, and 50 mM sodium butyrate were added to Triton lysis buffer.

Experiment [4] concerns DDX3X AcK118. Briefly: DDX3X acetylation detection by western blot, CBP-HA transfected HEK293T. The format is cell-based. Particulars: 5 µM. Here is the method:
as §3

Experiment [5] deals with DDX3X AcK118. Conditions: 10 µM; cited from earlier work.
[6] abbreviates: read-out: log EC50 from dose-dependent HDAC inhibition curves (converted).

Where “and” joins values, the source holds several entries; their conditions need not be identical. Identical values can stand only once.

T1 sequence (O15379 whole entry): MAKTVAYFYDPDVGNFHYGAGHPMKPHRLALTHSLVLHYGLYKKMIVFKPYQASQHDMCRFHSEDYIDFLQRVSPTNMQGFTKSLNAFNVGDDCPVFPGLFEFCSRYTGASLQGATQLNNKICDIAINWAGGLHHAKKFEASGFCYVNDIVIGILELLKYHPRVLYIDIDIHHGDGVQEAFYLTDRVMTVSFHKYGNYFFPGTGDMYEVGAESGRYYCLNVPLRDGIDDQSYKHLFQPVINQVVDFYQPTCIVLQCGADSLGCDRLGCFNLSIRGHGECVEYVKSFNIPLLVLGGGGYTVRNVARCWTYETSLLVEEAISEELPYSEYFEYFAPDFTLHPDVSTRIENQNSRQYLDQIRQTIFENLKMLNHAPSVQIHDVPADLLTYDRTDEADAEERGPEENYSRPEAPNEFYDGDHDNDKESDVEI
T1 sequence (Q9Y618 395-489 partner limits assumed): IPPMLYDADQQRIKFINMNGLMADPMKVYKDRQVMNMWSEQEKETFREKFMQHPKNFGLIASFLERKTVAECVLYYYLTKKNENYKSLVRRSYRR

As to `O=C(O)CCCc1ccccc1` [Phenylbutyric acid], in experiment [1], the 50% effective concentration (EC50) was 300 to 500 µM.

Take `O=C(O)CCCCC(S)CCS` (racemic) [RS LA reduced, (R/S)-dihydrolipoic acid]: the concentration for a half-maximal effect (EC50) was 47.5 µM on HDAC3/NcoR2 complex; 33.4 µM on HDAC2; 2.42 µM on HDAC6 (setting [6]); 20.2 µM on HDAC8 (setting [6]); 15.1 µM on HDAC1 (setting [6]). Further, the “raw luminescence signal, HDAC1 inhibition” value is 10948 and 11336 and 10633 at HDAC1 (log10 M -3.30103, 3 technical replicates); 35128 and 33959 and 34884 on HDAC1 (log10 M -3.82945, 3 technical replicates); 100059 and 96489 and 102534 on HDAC1 (log10 M -4.35788, 3 technical replicates); 200567 and 200318 and 195985 at HDAC1 (log10 M -4.88629, 3 technical replicates); 315045 and 314071 and 307544 at HDAC1 (log10 M -5.41477, 3 technical replicates); 353287 and 345284 and 342473 on HDAC1 (log10 M -5.94309, 3 technical replicates). The “raw luminescence signal, HDAC1 inhibition” value on HDAC1 (log10 M -6.47756, 3 technical replicates) was 372512 and 378178 and 378301; on HDAC1 (log10 M -6.87615, 3 technical replicates), 385390 and 377410 and 356944.

In the case of `CC(=O)N[C@@H](CS)C(=O)O` [NAC, N-acetyl-cysteine], in the experiment on A549 cells [2] (NAC +Ars), the “ROS (CellRox), relative to DMSO -Ars., Mean” value worked out at 0.6662; the “ROS (CellRox), relative to DMSO -Ars., replicate values” was 0.6371 and 0.672 and 0.6896. Moreover, in the experiment with A549 cells [3], the “tBuOOH-induced ROS (CellRox), relative to DMSO, Mean” value worked out at 0.6999; the “tBuOOH-induced ROS (CellRox), relative to DMSO, replicate values” is 0.7684 and 0.7006 and 0.6306.

Take `O=C(NO)c1cnc(NC2(c3ccccc3)CC2)nc1` [ACY-738]: in the experiment with α-Tubulin AcK40, the “α-Tubulin AcK40 acetylation level relative to control” value is listed as 6.5 fold. Moreover, the “DDX3X AcK118 acetylation level relative to control” value in the experiment with DDX3X AcK118 [4] came to 3.0 fold; in the experiment with DDX3X AcK118 [4] (listed as ACY738) it was 3 fold.

As for `CC(C)(C)OO` [TBHP], in the experiment on A549 cells [2] (TBHP -Ars), the “ROS (CellRox), relative to DMSO -Ars., Mean” value is listed as 8.0156; the “ROS (CellRox), relative to DMSO -Ars., replicate values” was 8.277 and 8.688 and 7.082.

Take `CN1CCc2c(c3ccccc3n2Cc2ccc(C(=O)NO)cc2)C1` [Tubastatin A]: the DDX3X hyperacetylation in the experiment on DDX3X AcK118 [5] was 2.6 fold.

`O=C(O)CCCCC(S)CCS` (stereo not shown) [LAred]: the HDAC6 relative activity is 1.901 and 1.871 and 1.9083 at HDAC6 (log conc -3.30103); 3.442 and 3.206 and 3.406 on HDAC6 (log conc -3.82945); 6.925 and 6.75 and 6.858 on HDAC6 (log conc -4.35788); 16.7633 and 15.9117 and 16.5726 on HDAC6 (log conc -4.88629); 38.1371 and 36.4753 and 35.86 at HDAC6 (log conc -5.41477); 60.9287 and 58.1296 and 64.9441 on HDAC6 (log conc -5.94309). Further, the HDAC6 relative activity on HDAC6 (log conc -6.47756) is 84.471 and 78.2193 and 82.7984; at HDAC6 (log conc -6.87615) it was 87.6459 and 83.3784 and 85.1621. The HDAC8 relative activity on HDAC8 (log conc -3.30103) is 5.5387 and 6.443 and 4.956; at HDAC8 (log conc -3.82945), 15.2478 and 14.986 and 14.6707; on HDAC8 (log conc -4.35788), 32.9883 and 33.8093 and 29.5437; at HDAC8 (log conc -4.88629), 65.7743 and 68.9393 and 55.1609; at HDAC8 (log conc -5.41477) it was 94.4673 and 96.4781 and 81.2779; at HDAC8 (log conc -5.94309) it was 99.9702 and 99.768 and 95.3061. The HDAC8 relative activity was 102.1 and 101.594 and 89.0594 on HDAC8 (log conc -6.47756); 104.349 and 101.731 and 91.7247 on HDAC8 (log conc -6.87615). Besides, the HDAC1 relative activity at HDAC1 (log conc -3.30103) was 2.768 and 2.872 and 2.683; at HDAC1 (log conc -3.82945) it was 9.265 and 8.951 and 9.199; on HDAC1 (log conc -4.35788) it was 26.7114 and 25.7521 and 27.3764; on HDAC1 (log conc -4.88629), 53.7175 and 53.6506 and 52.4863; at HDAC1 (log conc -5.41477), 84.4773 and 84.2156 and 82.4618; on HDAC1 (log conc -5.94309) it was 94.7528 and 92.6024 and 91.8471. Moreover, the HDAC1 relative activity on HDAC1 (log conc -6.47756) is 99.9185 and 101.441 and 101.474; on HDAC1 (log conc -6.87615), 103.379 and 101.234 and 95.7354.

With `CCCC(CCC)C(=O)O` [Valproic acid], in experiment [1], the half-maximal effective concentration (EC50) was 300 to 500 µM.
